Consider 24 molecules from patent publication US9416115B2, “Fused heterocyclic compounds as ion channel modulators” (Gilead Sciences, Inc., priority 2013, dated 2016).

A value given as a limit tells only on which side of the number the result lay.

In experiment [1] the target is wild-type human cardiac sodium channel, hNav1.5 (Homo sapiens, UniProt Q14524). The experiment is described as follows: Late INa screening assay (QPatch whole cell patch clamp, Tefluthrin-induced late current). Format: cell-based. The following applies: HEK293 hNav1.5, percent block of late INa. The method, boiled down: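 HEK293 cells stably expressing hNav1.5 without beta subunits were whole-cell patch clamped at 23-25 °C, stepping from −120 to −20 mV for 250 ms at 0.1 Hz. Late current (240–265 ms) was induced with 10 μM Tefluthrin, and compounds were added typically at 0.3 or 1 μM. Percent block was taken against 0 Na baseline with rundown correction.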
Sequence of wild-type human cardiac sodium channel, hNav1.5 (Q14524 whole entry): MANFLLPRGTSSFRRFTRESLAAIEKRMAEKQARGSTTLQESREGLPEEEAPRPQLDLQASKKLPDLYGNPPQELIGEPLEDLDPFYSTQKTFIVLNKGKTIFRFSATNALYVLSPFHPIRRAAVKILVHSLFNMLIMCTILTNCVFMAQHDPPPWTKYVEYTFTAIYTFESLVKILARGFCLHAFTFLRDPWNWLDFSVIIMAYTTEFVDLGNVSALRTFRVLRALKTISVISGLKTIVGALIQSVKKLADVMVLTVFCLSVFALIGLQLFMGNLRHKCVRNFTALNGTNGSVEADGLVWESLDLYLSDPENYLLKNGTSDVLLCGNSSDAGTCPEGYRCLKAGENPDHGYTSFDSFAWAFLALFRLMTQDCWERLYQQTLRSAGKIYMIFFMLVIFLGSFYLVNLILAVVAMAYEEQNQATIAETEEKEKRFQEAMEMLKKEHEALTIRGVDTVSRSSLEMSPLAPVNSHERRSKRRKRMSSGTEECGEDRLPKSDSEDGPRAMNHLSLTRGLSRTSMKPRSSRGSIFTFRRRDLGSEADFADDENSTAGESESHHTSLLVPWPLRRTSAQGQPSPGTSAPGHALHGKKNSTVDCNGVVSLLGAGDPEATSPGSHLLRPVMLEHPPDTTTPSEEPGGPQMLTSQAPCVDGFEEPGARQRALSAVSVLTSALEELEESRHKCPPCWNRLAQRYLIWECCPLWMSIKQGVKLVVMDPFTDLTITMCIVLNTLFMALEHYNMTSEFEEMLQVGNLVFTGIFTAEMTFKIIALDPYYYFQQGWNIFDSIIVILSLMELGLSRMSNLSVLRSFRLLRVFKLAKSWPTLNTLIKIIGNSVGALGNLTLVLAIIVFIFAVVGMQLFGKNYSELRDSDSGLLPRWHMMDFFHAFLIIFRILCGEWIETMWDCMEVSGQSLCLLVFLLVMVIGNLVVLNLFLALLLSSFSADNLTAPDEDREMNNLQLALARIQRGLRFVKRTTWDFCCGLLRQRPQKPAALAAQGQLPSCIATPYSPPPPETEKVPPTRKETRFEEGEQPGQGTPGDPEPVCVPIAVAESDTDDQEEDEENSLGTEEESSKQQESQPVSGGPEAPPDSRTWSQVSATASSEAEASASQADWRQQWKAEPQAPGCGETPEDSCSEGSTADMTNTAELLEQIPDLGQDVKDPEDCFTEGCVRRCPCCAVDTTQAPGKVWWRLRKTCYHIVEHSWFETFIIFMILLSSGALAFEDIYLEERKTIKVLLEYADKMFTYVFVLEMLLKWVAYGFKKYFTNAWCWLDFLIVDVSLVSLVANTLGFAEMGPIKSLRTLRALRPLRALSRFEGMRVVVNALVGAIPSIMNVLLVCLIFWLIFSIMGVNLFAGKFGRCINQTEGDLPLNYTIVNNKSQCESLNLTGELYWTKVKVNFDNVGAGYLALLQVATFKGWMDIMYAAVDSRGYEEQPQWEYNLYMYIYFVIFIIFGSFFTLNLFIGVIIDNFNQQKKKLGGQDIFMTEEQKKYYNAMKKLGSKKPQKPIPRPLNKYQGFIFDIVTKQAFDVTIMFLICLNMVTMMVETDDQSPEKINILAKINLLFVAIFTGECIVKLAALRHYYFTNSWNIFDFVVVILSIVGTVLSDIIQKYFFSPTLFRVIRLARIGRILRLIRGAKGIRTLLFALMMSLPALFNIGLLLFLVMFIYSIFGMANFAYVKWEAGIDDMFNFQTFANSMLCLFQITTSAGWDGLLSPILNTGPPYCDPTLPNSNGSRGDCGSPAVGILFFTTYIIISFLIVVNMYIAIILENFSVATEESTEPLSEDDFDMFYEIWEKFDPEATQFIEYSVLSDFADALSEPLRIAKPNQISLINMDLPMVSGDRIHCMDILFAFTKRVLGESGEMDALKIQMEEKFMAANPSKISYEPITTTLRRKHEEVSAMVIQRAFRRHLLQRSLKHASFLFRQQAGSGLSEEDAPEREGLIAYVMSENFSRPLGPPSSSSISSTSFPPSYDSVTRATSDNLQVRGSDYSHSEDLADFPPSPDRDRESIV

In another experiment the target is T1, hNaV1.2 (SCN2A) (Homo sapiens, UniProt Q99250).
T1 construct: expressed in transfected cells
T1 sequence (Q99250 whole entry): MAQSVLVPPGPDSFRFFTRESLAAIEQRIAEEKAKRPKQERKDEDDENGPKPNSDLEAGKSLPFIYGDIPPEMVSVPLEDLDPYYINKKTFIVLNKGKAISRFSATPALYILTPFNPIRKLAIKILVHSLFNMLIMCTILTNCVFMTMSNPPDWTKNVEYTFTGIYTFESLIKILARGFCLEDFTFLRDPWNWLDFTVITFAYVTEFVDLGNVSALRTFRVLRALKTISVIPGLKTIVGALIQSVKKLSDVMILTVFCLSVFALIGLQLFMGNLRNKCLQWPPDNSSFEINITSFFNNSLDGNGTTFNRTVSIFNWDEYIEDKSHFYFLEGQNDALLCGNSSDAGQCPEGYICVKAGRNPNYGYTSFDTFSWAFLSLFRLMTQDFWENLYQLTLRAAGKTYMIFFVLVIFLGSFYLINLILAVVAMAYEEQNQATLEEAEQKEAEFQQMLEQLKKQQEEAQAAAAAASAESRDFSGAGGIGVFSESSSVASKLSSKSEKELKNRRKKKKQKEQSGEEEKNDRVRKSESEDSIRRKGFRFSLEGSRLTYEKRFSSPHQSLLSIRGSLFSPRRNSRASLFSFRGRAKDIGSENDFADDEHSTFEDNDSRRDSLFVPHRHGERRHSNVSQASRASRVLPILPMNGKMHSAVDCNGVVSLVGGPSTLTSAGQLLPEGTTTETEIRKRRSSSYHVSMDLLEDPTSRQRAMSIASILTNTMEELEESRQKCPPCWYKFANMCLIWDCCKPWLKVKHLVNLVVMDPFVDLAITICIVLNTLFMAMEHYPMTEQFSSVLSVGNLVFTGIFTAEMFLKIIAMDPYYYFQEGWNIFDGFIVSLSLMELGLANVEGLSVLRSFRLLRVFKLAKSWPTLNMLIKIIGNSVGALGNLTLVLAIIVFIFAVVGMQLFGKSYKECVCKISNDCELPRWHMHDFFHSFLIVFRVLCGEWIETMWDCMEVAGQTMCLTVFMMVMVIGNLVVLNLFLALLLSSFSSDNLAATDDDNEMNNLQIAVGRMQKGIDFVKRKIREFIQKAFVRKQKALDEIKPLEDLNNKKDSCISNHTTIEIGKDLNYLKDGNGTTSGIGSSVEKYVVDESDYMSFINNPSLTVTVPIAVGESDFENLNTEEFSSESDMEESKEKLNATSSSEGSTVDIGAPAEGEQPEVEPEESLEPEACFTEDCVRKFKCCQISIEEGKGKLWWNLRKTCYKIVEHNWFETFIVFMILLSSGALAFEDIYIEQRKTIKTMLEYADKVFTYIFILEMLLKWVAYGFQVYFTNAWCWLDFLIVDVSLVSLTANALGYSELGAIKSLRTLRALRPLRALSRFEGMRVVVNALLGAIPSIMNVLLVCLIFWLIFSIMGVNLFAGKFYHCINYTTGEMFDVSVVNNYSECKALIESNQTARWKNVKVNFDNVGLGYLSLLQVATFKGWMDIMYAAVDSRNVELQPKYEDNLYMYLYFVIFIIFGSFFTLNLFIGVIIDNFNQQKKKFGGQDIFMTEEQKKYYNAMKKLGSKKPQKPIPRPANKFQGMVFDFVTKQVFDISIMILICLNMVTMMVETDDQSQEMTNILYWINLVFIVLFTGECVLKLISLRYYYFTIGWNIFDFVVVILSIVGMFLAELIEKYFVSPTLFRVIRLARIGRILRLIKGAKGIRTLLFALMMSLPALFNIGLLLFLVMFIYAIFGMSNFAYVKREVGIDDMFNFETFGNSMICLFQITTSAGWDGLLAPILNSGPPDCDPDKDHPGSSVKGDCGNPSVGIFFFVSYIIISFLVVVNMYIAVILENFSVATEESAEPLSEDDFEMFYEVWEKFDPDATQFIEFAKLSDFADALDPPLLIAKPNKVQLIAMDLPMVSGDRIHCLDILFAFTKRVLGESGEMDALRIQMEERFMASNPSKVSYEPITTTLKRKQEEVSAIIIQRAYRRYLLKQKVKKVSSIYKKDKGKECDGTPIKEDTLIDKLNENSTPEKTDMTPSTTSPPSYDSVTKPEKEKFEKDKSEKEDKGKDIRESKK
T1 sequence (Q07699 19-218 partner): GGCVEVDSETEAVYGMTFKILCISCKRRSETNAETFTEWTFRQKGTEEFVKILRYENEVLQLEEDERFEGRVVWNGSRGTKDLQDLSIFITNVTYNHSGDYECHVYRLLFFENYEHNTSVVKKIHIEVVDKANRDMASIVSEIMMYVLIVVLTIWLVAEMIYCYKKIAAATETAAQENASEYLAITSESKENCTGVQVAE
T1 sequence (O60939 30-215 partner): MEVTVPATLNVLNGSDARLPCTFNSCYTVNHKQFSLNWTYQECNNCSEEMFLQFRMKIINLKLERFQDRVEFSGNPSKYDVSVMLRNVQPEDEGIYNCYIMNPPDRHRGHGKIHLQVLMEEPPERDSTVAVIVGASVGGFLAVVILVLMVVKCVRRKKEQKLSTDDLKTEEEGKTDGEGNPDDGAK
The experiment is described as follows: Use-dependent inhibition of the CNS Nav1.2 sodium channel. The following applies: use-dependent block, 25 Hz, pulse 20, read-out: Nav1.2 UDB 25 Hz 10 uM. Format: cell-based. How it is done: HEK-293 cells stably expressing wild-type (WT) hNaV1.2 (SCN2A NCBI # NM_021007.2, SCN1B NCBI # NM_001037.4, SCN2B NCBI # NM_004588.2) were used to record INa. Cells are maintained with standard tissue culture procedures and stable channel expression is maintained with 800 ug/mL G418 and 3 ug/mL Puromycin in the culture medium. Unless otherwise noted, all reagents are purchased from Sigma-Aldrich (St Louis, Mo., U.S.A.).
Assays measuring Use-Dependent Block (UDB) of Nav1.2 are performed on an automated electrophysiology platform, QPatch 16X or QPatch HT (Sophion Bioscience, Copenhagen, Denmark), using the whole cell patch clamp technique to measure currents through the cell membrane. Series resistance compensation is set to 100% and series resistance and whole-cell compensation are performed automatically. Currents stored in the Sophion Bioscience Oracle database (Sophion Bioscience, Copenhagen, Denmark). Analysis is performed using QPatch Assay software and data are compiled in Excel 2010 (Microsoft, Seattle, Wash., U.S.A.).
The internal (pipette) solution consists of (in mM) 105 CsF, 10 NaF, 20 CsCl, 2 EGTA, 10 HEPES, 10 Dextrose with a pH of 7.35 and osmolarity of 300 mOsmol/kg. The external (bath) solution contains in (mM): 145 NaCl, 4 KCl, 1.8 CaCl2, 1 MgCl2, 10 dextrose, 10 HEPES, with a pH of 7.35 and osmolarity of 310 mOsmol/kg. Experiments are carried out at 23-25° C.
Compound stocks are routinely made by the Gilead Sample Bank in vials to 10 mM in dimethyl sulfoxide (DMSO). In some cases, when compounds are not soluble in DMSO, they are made in 100% ethanol. Stocks are sonicated as necessary. […]
Cells are allowed to stabilize for 10 min after establishment of the whole-cell configuration before current is measured. The test compound is applied 2 times at 60 second intervals. After the second compound addition, a 200 second wait period was imposed to allow for equilibration. Leak currents are subtracted by using an online P/4 procedure and all currents are low-pass Bessel filtered at 5 kHz and digitized at […].
Results are presented as mean percentage inhibition.
Use-dependent block of Nav1.2 peak current is measured during pulse number 20 of a voltage pulse train (0 mV, 20 ms, 20 pulses, 25 Hz) from a holding potential of −120 mV.
Currents are normalized to the peak current recorded in response to the first pulse in each frequency train. The voltage protocol for UDB was performed in the absence and presence of compound and percentage inhibition was calculated with respect to the compound free condition.

In experiment [1], `CC(=O)N1CC(COc2noc3ccc(-c4ccc(OC(F)(F)F)cc4)cc23)C1` [Example 110, 1-(3-(((5-(4-(trifluoromethoxy)phenyl)benzo[d]isoxazol-3-yl)oxy)methyl)azetidin-1-yl)ethan-1-one] showed an inhibition at 0.3 µM of 25.7% and an inhibition at 1 µM of 62.7%. In addition, the inhibition at 10 µM at hNaV1.2 (SCN2A) was 67.3%.
`CC(C)(C)OC(=O)N1CCOC[C@H]1COc1noc2ccc(-c3ccc(OC(F)(F)F)cc3)cc12` [Example 111, tert-butyl(S)-3-(((5-(4-(trifluoromethoxy)phenyl)benzo[d]isoxazol-3-yl)oxy)methyl)morpholine-4-carboxylate] gave an inhibition at 1 µM in experiment [1] of 35.1%. For the same molecule, the inhibition at 10 µM at hNaV1.2 (SCN2A) amounted to 47.3%.
In experiment [1], `FC(F)(F)Oc1ccc(-c2ccc3onc(OC[C@@H]4COCCN4)c3c2)cc1` [Example 113, (S)-3-(morpholin-3-ylmethoxy)-5-(4-(trifluoromethoxy)phenyl)benzo[d]isoxazole] gave an inhibition at 0.3 µM of 43.9% and an inhibition at 1 µM of 79.9%. For the same molecule, the inhibition at 10 µM on hNaV1.2 (SCN2A) amounted to 91.2%.
For `FC(F)(F)Oc1ccc(-c2ccc3onc(OC[C@H]4COCCN4)c3c2)cc1` [Example 114, (R)-3-(morpholin-3-ylmethoxy)-5-(4-(trifluoromethoxy)phenyl)benzo[d]isoxazole] the same measures were 22.5%, 61.2% and 87%.
For `CC(=O)N1CCOC[C@H]1COc1noc2ccc(-c3ccc(OC(F)(F)F)cc3)cc12` [Example 115, (S)-1-(3-(((5-(4-(trifluoromethoxy)phenyl)benzo[d]isoxazol-3-yl)oxy)methyl)morpholino)ethan-1-one] the same measures were 23.5%, 56.7% and 70.8%.
In the case of `CC(=O)N1CCOC[C@@H]1COc1noc2ccc(-c3ccc(OC(F)(F)F)cc3)cc12` [Example 116, (R)-1-(3-(((5-(4-(trifluoromethoxy)phenyl)benzo[d]isoxazol-3-yl)oxy)methyl)morpholino)ethan-1-one], in experiment [1], the inhibition at 1 µM was 48.3%. At hNaV1.2 (SCN2A), the inhibition at 10 µM is 62.3%.
In experiment [1], `C[C@@H](N)COc1noc2ccc(-c3ccc(OC(F)(F)F)cc3)cc12` [Example 117, (R)-1-((5-(4-(trifluoromethoxy)phenyl)benzo[d]isoxazol-3-yl)oxy)propan-2-amine] displayed an inhibition at 0.3 µM of 39.4% and an inhibition at 1 µM of 78.1%. Further, the inhibition at 10 µM at hNaV1.2 (SCN2A) worked out at 88.4%.
For `CC(C)[C@H](N)COc1noc2ccc(-c3ccc(OC(F)(F)F)cc3)cc12` [Example 118, (S)-3-methyl-1-((5-(4-(trifluoromethoxy)phenyl)benzo[d]isoxazol-3-yl)oxy)butan-2-amine], in experiment [1], the inhibition at 0.3 µM stood at 22.5% and the inhibition at 1 µM was found to be 66.1%. Moreover, the inhibition at 10 µM on hNaV1.2 (SCN2A) was 90.4%.
Regarding `C[C@H](COc1noc2ccc(-c3ccc(OC(F)(F)F)cc3)cc12)N1CCCC1=O` [Example 119, (R)-1-(1-((5-(4-(trifluoromethoxy)phenyl)benzo[d]isoxazol-3-yl)oxy)propan-2-yl)pyrrolidin-2-one], in experiment [1], the inhibition at 1 µM was determined as 51.2%. Further, the inhibition at 10 µM on hNaV1.2 (SCN2A) came to 52.3%.
Consider `CC(C)[C@@H](COc1noc2ccc(-c3ccc(OC(F)(F)F)cc3)cc12)N1CCCC1=O` [Example 120, (S)-1-(3-methyl-1-((5-(4-(trifluoromethoxy)phenyl)benzo[d]isoxazol-3-yl)oxy)butan-2-yl)pyrrolidin-2-one], for which, in experiment [1], the inhibition at 0.3 µM is 35.8% and the inhibition at 1 µM was 58.2%. Further, the inhibition at 10 µM at hNaV1.2 (SCN2A) is 74.4%.
In experiment [1], `O=C(COc1noc2ccc(-c3ccc(OC(F)(F)F)cc3)cc12)N1CCCC1` [Example 121, 1-(pyrrolidin-1-yl)-2-((5-(4-(trifluoromethoxy)phenyl)benzo[d]isoxazol-3-yl)oxy)ethan-1-one] showed an inhibition at 0.3 µM of 39% and an inhibition at 1 µM of 77.7%. The inhibition at 10 µM at hNaV1.2 (SCN2A) was 57.8%.
The molecule `CC(C)NC(=O)COc1noc2ccc(-c3ccc(OC(F)(F)F)cc3)cc12` [Example 122, N-isopropyl-2-((5-(4-(trifluoromethoxy)phenyl)benzo[d]isoxazol-3-yl)oxy)acetamide] returned an inhibition at 1 µM in experiment [1] of 41.3%. In addition, the inhibition at 10 µM on hNaV1.2 (SCN2A) was 29.7%.
On the same counts, the results for `FC(F)(F)Oc1ccc(-c2ccc3onc(OCCNc4ncccn4)c3c2)cc1` [Example 123, N-(2-((5-(4-(trifluoromethoxy)phenyl)benzo[d]isoxazol-3-yl)oxy)ethyl)pyrimidin-2-amine] are 36.3% and less than 5%.
On the same counts, the results for `FC(F)(F)Oc1ccc(-c2ccc3onc(Oc4ncccn4)c3c2)cc1` [Example 124, 3-(pyrimidin-2-yloxy)-5-(4-(trifluoromethoxy)phenyl)benzo[d]isoxazole] are 53.7% and 44.9%.
On the same counts, the results for `FC(F)(F)Oc1ccc(-c2ccc3onc(NCc4ncccn4)c3c2)cc1` [Example 126, N-(pyrimidin-2-ylmethyl)-5-(4-(trifluoromethoxy)phenyl)benzo[d]isoxazol-3-amine] are 50% and less than 5%.
In experiment [1], `CN1CCN(c2noc3ccc(-c4ccc(OC(F)(F)F)cc4)cc23)CC1` [Example 127, 3-(4-methylpiperazin-1-yl)-5-(4-(trifluoromethoxy)phenyl)benzo[d]isoxazole] registered an inhibition at 1 µM of 37.4%. In addition, the inhibition at 10 µM at hNaV1.2 (SCN2A) was determined as 76.5%.
On the same counts, the results for `FC(F)(F)Oc1ccc(-c2ccc3onc(NCC4CC4)c3c2)cc1` [Example 128, N-(cyclopropylmethyl)-5-(4-(trifluoromethoxy)phenyl)benzo[d]isoxazol-3-amine] are 42% and less than 5%.
For `FC(F)(F)Oc1ccc(-c2ccc3onc(N4CCOCC4)c3c2)cc1` [Example 130, 3-morpholino-5-(4-(trifluoromethoxy)phenyl)benzo[d]isoxazole] the same measures were 38.3% and less than 5%.
For `FC(F)(F)Oc1ccc(-c2ccc3onc(-n4ccnc4)c3c2)cc1` [Example 132, 3-(1H-imidazol-1-yl)-5-(4-(trifluoromethoxy)phenyl)benzo[d]isoxazole] the same measures were 40.5% and less than 5%.
In turn, `CN(C)c1noc2ccc(-c3ccc(OC(F)(F)F)cc3)cc12` [Example 133, N,N-dimethyl-5-(4-(trifluoromethoxy)phenyl)benzo[d]isoxazol-3-amine] yielded an inhibition at 1 µM in experiment [1] of 45.8%. For the same molecule, the inhibition at 10 µM on hNaV1.2 (SCN2A) is 29.2%.
In experiment [1], `O=C1CCCN1CCNc1noc2ccc(-c3ccc(OC(F)(F)F)cc3)cc12` [Example 135, 1-(2-((5-(4-(trifluoromethoxy)phenyl)benzo[d]isoxazol-3-yl)amino)ethyl)pyrrolidin-2-one] returned an inhibition at 0.3 µM of 19.7% and an inhibition at 1 µM of 48.8%. Besides, on hNaV1.2 (SCN2A), the inhibition at 10 µM is 76.5%.
Regarding `FC(F)(F)Oc1ccc(-c2ccc3onc(-n4cncn4)c3c2)cc1` [Example 136, 3-(1H-1,2,4-triazol-1-yl)-5-(4-(trifluoromethoxy)phenyl)benzo[d]isoxazole], the inhibition at 1 µM in experiment [1] came to 44.8%. For the same molecule, on hNaV1.2 (SCN2A), the inhibition at 10 µM was less than 5%.
Turning to `FC(F)(F)Oc1ccc(-c2ccc3onc(NCCn4cncn4)c3c2)cc1` [Example 137, N-(2-(1H-1,2,4-triazol-1-yl)ethyl)-5-(4-(trifluoromethoxy)phenyl)benzo[d]isoxazol-3-amine], the inhibition at 1 µM in experiment [1] amounted to 47.2%. Moreover, on hNaV1.2 (SCN2A), the inhibition at 10 µM turned out to be 86%.
The molecule `Cc1cn(-c2noc3ccc(-c4ccc(OC(F)(F)F)cc4)cc23)cn1` [Example 139, 3-(4-methyl-1H-imidazol-1-yl)-5-(4-(trifluoromethoxy)phenyl)benzo[d]isoxazole] yielded an inhibition at 1 µM in experiment [1] of 41.2%. Moreover, the inhibition at 10 µM on hNaV1.2 (SCN2A) came out at 26.1%.
